Several values for one entry are separate records, joined by “and”; a condition that tells them apart may be missing. Identical values can stand only once. Entries after “also recorded” stand apart in the source; their conditions may differ.
Legend:
CB1 S7.39A mutation = details: cited from earlier work
[1] = biological target: HEK293 cells stably expressing CB2 (Homo sapiens, UniProt P34972); type: cell-based; details: 1 µM compound
[2] = tested on: CB2 receptor-transfected Chinese hamster cells; details: cited from earlier work
CB2 W5.43(194)Y mutation = details: cited from earlier work
CB2 W5.43A/F mutations = details: suggesting a misfolded protein; cited from earlier work
CB2 S4.53(161)A mutation = details: cited from earlier work
CB2 S4.57(165)A mutation = details: cited from earlier work
human CB2 receptors = human CB2 receptors (Homo sapiens, UniProt P34972); type: binding; details: ratio of Ki to Ki of 1
Chain of human CB2 receptors (P34972 whole entry): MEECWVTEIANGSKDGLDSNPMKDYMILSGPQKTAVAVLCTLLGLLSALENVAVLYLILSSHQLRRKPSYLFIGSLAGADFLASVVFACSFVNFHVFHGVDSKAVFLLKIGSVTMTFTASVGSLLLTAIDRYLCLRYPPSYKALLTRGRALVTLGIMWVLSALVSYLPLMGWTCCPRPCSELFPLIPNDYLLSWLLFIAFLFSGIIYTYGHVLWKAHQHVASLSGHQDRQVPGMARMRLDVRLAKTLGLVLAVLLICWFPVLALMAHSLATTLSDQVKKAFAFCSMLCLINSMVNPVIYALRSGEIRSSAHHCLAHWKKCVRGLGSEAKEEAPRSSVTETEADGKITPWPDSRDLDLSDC

Chain of HEK293 cells stably expressing CB2 (P34972 whole entry): as above

SMILES	antagonism of CP55940 effect in the cAMP assay [1]	fold loss of CB2 affinity compared to 1 (human CB2 receptors)	further results
CCCCCCC(C)(C)c1ccc([C@@H]2C[C@H](O)CC[C@H]2CCCO)c(O)c1 [CP-55,940]	–	–	effect of mutation on binding (CB1 S7.39A mutation): loss of binding
Cc1ccc(Cn2nc(C(=O)N[C@@H]3C(C)(C)[C@@H]4CC[C@@]3(C)C4)cc2-c2ccc(Cl)c(C)c2)cc1 [Compound 1, N-[(1S)-endo-1,3,3-trimethylbicyclo[2.2.1]heptan2-yl]-5-(4-chloro-3-methylphenyl)-1-[(4-methylphenyl)methyl]-1H-pyrazole-3-carboxamide]	antagonize the effects of CP-55,940; also recorded: antagonize the cAMP effects of CP55940	–	effect on high constitutive activity of CB2 [2]: inverse agonist; effect of mutation on binding (CB2 W5.43(194)Y mutation): decrease in the binding; effect of mutation on binding (CB2 W5.43A/F mutations): no detectable binding; effect of mutation on binding (CB2 S4.53(161)A mutation): abolished the binding; effect of mutation on binding (CB2 S4.57(165)A mutation): abolished the binding
Cc1ccc(Cn2nc(/C=C/[C@@H]3C(C)(C)[C@@H]4CC[C@@]3(C)C4)cc2-c2ccc(Cl)c(C)c2)cc1 [Compound 2, 5-(4-Chloro-3-methylphenyl)-1-(4-methyl-benzyl)-3-[(E)-2-endo-(1,3,3-trimethyl-bicyclo[2.2.1]hept-2-yl)-vinyl]-1H-pyrazole]	lack antagonist properties	236 fold	–
Cc1ccc(Cn2cc(C(=O)N[C@@H]3C(C)(C)[C@@H]4CC[C@@]3(C)C4)cc2-c2ccc(Cl)c(C)c2)cc1 [Compound 3, 5-(4-Chloro-3-methyl-phenyl)-1-(4-methyl-benzyl)-1H-pyrrole-3-carboxylic acid (1,3,3-trimethyl-bicyclo[2.2.1]hept-2-yl)-amide]	more potent CB2 antagonist than 1; also recorded: antagonize the cAMP effects of CP55940	7 fold and 6.8 fold	–
Cc1ccc(Cn2cc(/C=C/[C@@H]3C(C)(C)[C@@H]4CC[C@@]3(C)C4)cc2-c2ccc(Cl)c(C)c2)cc1 [Compound 4, 5-(4-Chloro-3-methylphenyl)-1-[(4-methylphenyl)methyl]-3-[(E)-2-[(1S,2S,4R)-1,3,3-trimethylbicyclo[2.2.1]heptan-2-yl]ethenyl]-1H-pyrrole]	lack antagonist properties	547 fold	–
Cc1ccc(Cn2nc(C(=O)N[C@@H]3C[C@@H]4CC[C@@]3(C)C4(C)C)cc2-c2ccc(Cl)c(C)c2)cc1 [Compound 5, 5-(4-Chloro-3-methylphenyl)-1-[(4-methylphenyl)methyl]-N-[(1S,2R,4S)-1,7,7-trimethylbicyclo[2.2.1]heptan-2-yl]-1H-pyrazole-3-carboxamide]	antagonize the cAMP effects of CP55940	13 fold	–
Cc1cc(-c2cc(C(=O)N[C@@H]3C(C)(C)[C@@H]4CC[C@@]3(C)C4)nn2-c2ccccc2)ccc1Cl [Compound 6, 5-(4-Chloro-3-methylphenyl)-1-phenyl-N-{1,3,3-trimethylbicyclo[2.2.1]heptan-2-yl}-1H-pyrazole-3-carboxamide]	no antagonism; also recorded: lack antagonist properties	42 fold	–
CCCCCCC(C)(C)c1cc(O)c2c(c1)OC(C)(C)[C@@H]1CC=C(CO)C[C@@H]21 [HU210]	–	–	effect of mutation on binding (CB1 S7.39A mutation): reduction in binding

Source: article PMC3804063 (Journal of medicinal chemistry, 2013)
